Assay results: patent publication EP1420018A1, “Pyrido[1,2-a]benzimidazole derivatives useful in treating central nervous system disorders” (Ortho-McNeil Pharmaceutical, Inc., priority 1996, dated 1998)
Like-named read-outs stand apart in the source and are kept apart here.

Tests used:
[1] = biological target: benzodiazepine site of the GABA-A receptor; test: Benzodiazepine Receptor Binding Assay (inhibition of 3H-flunitrazepam binding); settings: read-out: GABAA Receptor Binding IC50
[2] = test system: Anxiety in the Adult Male Rat; test: Suppression of Anxiety in the Adult Male Rat (rat conflict test); type: in vivo, rats; settings: for minimal effective dose: Rattus norvegicus
Method: Assay to Measure the Suppression of Anxiety in the Adult Male Rat
Male rats were deprived of water for 48 hours and were deprived of food for 24 hours prior to testing. After the first 24 hours of water deprivation, they were placed in the conflict chamber for a training period; wherein, they were allowed 200 unpunished licks from a bottle containing tap water. The experiment was run the next day. At the expected time of peak activity, the animals were placed in the chamber and allowed access to tap water. […] Their first lick initiates a 3-min test session. Subsequently, every 20th lick was punished by a 0.2-s shock delivered via the stainless-steel drinking-tube.
The Wilcoxon rank-sum test (Mann-Whitney U-test) was used to test for an increase (p<0.05, 1-tailed) in the median number of shocks in drug-treated groups, compared to a concurrently run vehicle-treated group. The biological assay is considered to be valid if the effects of a known anxiolytic (positive control) are detected, within the same experiment.

[3] = test system: metrazol-induced convulsions; test: Suppression of Metrazol-Induced Convulsions in Adult Male Mice; type: in vivo; settings: for ED50: Mus musculus, ip
Method: Assay to Determine the Suppression of Metrazol-Induced Convulsions in Adult Male Mice
Male CD1 mice, were fasted at least 16 hours, were divided into equal groups and test compounds or vehicle were administered parenterally. Water was not withheld except during the period of observations. […] Metrazol was dissolved in 0.9% sodium chloride solution, and its dose volume was 10 ml/kg. Animals were housed individually for observation of clonic convulsions, tonic convulsions and death for a period of 30 min. […] The biological assay was considered to be valid if the effects of a known anticonvulsant (positive control) were detected, within the same experiment. Activity was reported as percent reduction of clonic convulsions from the vehicle group.

[4] = test system: metrazol-induced convulsions; test: as above; type: in vivo; settings: for ED50: Mus musculus, po
[5] = inhibition of 3H-flunitrazepam (ca. 3 nM) binding to membranes, 25°C, over 10,000 = not active
[6] = po, minimum effective dose, increase in shocks tolerated, >10 = active dose not determined, read-out: Rat Conflict (MED, mg/kg) po
[7] = block of clonic convulsions, male CD1 mice, >30 = active dose not determined
[8] = ip, minimum effective dose, increase in shocks tolerated, >10 = active dose not determined, read-out: Rat Conflict (MED, mg/kg) ip
[9] = ip, rat, ip, read-out: Rat Conflict (MED, mg/kg) ip
[10] = po, rat, po, read-out: Rat Conflict (MED, mg/kg) po

Molecule | IC50 [1] [nM] | IC50 [1, 5] [nM] | minimal effective dose [2, 6] [mg/kg] | ED50 [3, 7] [mg/kg] | ED50 [4, 7] [mg/kg] | minimal effective dose [2, 10] [mg/kg] | further results
7-Fluoro-1,2-dihydro-5-[2-(methoxy)ethoxymethyl]-3-oxo-N-(2-fluorophenyl)pyrido[1,2-a]benzimidazole-4-carboxamide [Compound 160] | 0.48 | – | – | – | – | – | Rat Conflict (MED, mg/kg) ip ([2]; rat, ip): <10 mg/kg; Rat Conflict (MED, mg/kg) po ([2]; rat, po): 1 mg/kg; Mouse Metrazol (ED50, mg/kg) ip ([3]; mouse): <1 mg/kg; Mouse Metrazol (ED50, mg/kg) po ([4]; mouse): 0.3 mg/kg
O=C(CN1C2=C(C(=O)Nc3ccccc3F)C(=O)CCN2c2ccc(F)cc21)NCCc1c[nH]cn1 [Compound 32] | – | 3.56 | > 3 | – | – | – | –
CN=C(NCCN1C2=C(C(=O)Nc3ccccc3F)C(=O)CCN2c2ccc(F)cc21)N1CCCC1 [Compound 33] | – | 54 | > 3 | – | – | – | –
COc1cccc2c1N(CCN(C)C)C1=C(C(=O)Nc3nccs3)C(=O)CCN12 [Compound 34] | – | 1000 | > 3 | – | – | – | –
Cc1ccc(NC(=O)C2=C3N(CCNS(=O)(=O)C(F)(F)F)c4cc(F)ccc4N3CCC2=O)s1 [Compound 35] | – | 46.9 | > 10 | – | – | – | –
N#CCCNC(=O)CN1C2=C(C(=O)Nc3ccccc3F)C(=O)CCN2c2ccc(F)cc21 [Compound 36, 7-Fluoro-1,2-dihydro-5-[N-(2-cyanoethyl)-2-acetamido]-3-oxo-N-(2-fluorophenyl)pyrido[1,2-a]benzimidazole-4-carboxamide] | – | 3.3 | > 10 | > 1 | > 30 | – | –
O=C1CCN2C(=C1C(=O)Nc1ccccc1F)N(CCNS(=O)(=O)c1ccc(C(F)(F)F)cc1)c1cc(F)ccc12 [Compound 39] | – | 122 | > 10 | > 1 | > 3 | – | –
O=C1CCN2C(=C1C(=O)Nc1ccccc1F)N(CCNC(=O)c1ccc(C(F)(F)F)cc1)c1cc(F)ccc12 [Compound 42] | – | 17 | ~3 | ≥ 30 | > 30 | – | minimal effective dose [2, 8]: ≤ 10 mg/kg
CN(C)CCN1C2=C(C(=O)Nc3ccccc3F)C(=O)CCN2c2ccc(Cl)cc21 [Compound 43] | – | 26.9 | > 10 | 1 to 10 | < 30 | – | minimal effective dose [2, 8]: 10 mg/kg
O=C1CCN2C(=C1C(=O)Nc1ccccc1F)N(CCNS(=O)(=O)c1ccccc1)c1cc(F)ccc12 [Compound 44] | – | 10.1 | > 10 | ≤ 1 | < 30 | – | minimal effective dose [2, 8]: > 10 mg/kg
O=C1CCN2C(=C1C(=O)Nc1c(F)cccc1F)N(CCN(Cc1ccccc1)Cc1ccccc1)c1cc(F)ccc12 [Compound 63, 7-Fluoro-1,2-dihydro-5-[N,N-di(benzyl)-2-aminoethyl]-3-oxo-N-(2,6-difluorophenyl)pyrido[1,2-a]benzimidazole-4-carboxamide] | 15.5 | – | – | – | – | – | minimal effective dose [2, 9]: > 10 mg/kg
O=C1CCN2C(=C1C(=O)Nc1ccccc1F)N(CCO)c1c(O)cccc12 [Compound 94, 6-Hydroxy-1,2-dihydro-5-(2-hydroxyethyl)-3-oxo-N-(2-fluorophenyl)pyrido[1,2-a]benzimidazole-4-carboxamide] | 2.38 | – | – | – | – | > 10 | –
COCCN1C2=C(C(=O)Nc3ccccc3F)C(=O)CCN2c2cccc(OC)c21 [Compound 96] | 1.8 | – | – | – | – | > 10 | –
COCCN1C2=C(C(=O)Nc3ncc(C)s3)C(=O)CCN2c2ccccc21 [Compound 98] | 11 | – | – | – | – | 3 | –
COCCN1C2=C(C(=O)Nc3ccccc3F)C(=O)CCN2c2c(OCc3ccccc3)cccc21 [Compound 109] | > 1000 | – | – | – | – | > 10 | –
CC(=O)OCCN1C2=C(C(=O)Nc3ccccc3F)C(=O)CCN2c2ccc(F)cc21 [Compound 119, 7-Fluoro-1,2-dihydro-5-(2-acetoxyethyl)-3-oxo-N-(2-fluorophenyl)pyrido[1,2-a]benzimidazole-4-carboxamide] | – | – | – | – | – | 3 | ED50 ([3]; mouse): < 1 mg/kg; ED50 ([4]; mouse): ≤ 3 mg/kg
O=C1CCN2C(=C1C(=O)Nc1ccccc1F)N(CC(O)CO)c1cc(F)ccc12 (stereo not drawn) [Compound 162, 7-Fluoro-1,2-dihydro-5-[2,3-dihydroxypropyl]-3-oxo-N-(2-fluorophenyl)pyrido[1,2-a]benzimidazole-4-carboxamide] | – | – | – | – | – | > 10 | minimal effective dose [2, 9]: ≤ 10 mg/kg; ED50 ([3]; mouse): 3 mg/kg; ED50 ([4]; mouse): ≤ 30 mg/kg
C[S+]([O-])CCN1C2=C(C(=O)Nc3ccccc3F)C(=O)CCN2c2ccc(F)cc21 (stereo not drawn) [Compound 183, 7-Fluoro-1,2-dihydro-5-[2-(methylsulfoxy)ethyl]-3-oxo-N-(2-fluorophenyl)pyrido[1,2-a]benzimidazole-4-carboxamide] | – | – | 10 | > 1 | ~10 | – | –

Now from value to molecule, other results behind:

IC50 [1] [nM] | IC50 [1, 5] [nM] | Molecule | minimal effective dose [2, 6] [mg/kg] | ED50 [3, 7] [mg/kg] | ED50 [4, 7] [mg/kg] | minimal effective dose [2, 10] [mg/kg] | further results
– | 18.3 | CN(CCN1C2=C(C(=O)Nc3ccccc3F)C(=O)CCN2c2ccc(F)cc21)S(=O)(=O)C(F)(F)F [Compound 37] | > 10 | > 1 | > 30 | – | –
– | 4.06 | COCCN(C)CCN1C2=C(C(=O)Nc3ccccc3F)C(=O)CCN2c2ccc(F)cc21 [Compound 38, 7-Fluoro-1,2-dihydro-5-[N-(2-(methoxy)ethyl)-2-(methylamino)ethyl]-3-oxo-N-(2-fluorophenyl)pyrido[1,2-a]-benzimidazole-4-carboxamide] | 3 | < 1 | 1 | – | –
– | 35 | CN(C)C=NCCN1C2=C(C(=O)Nc3ccccc3F)C(=O)CCN2c2ccc(F)cc21 [Compound 40] | 10 | < 1 | ~30 | – | –
– | 9.8 | CCN(C)CCN1C2=C(C(=O)Nc3ccccc3F)C(=O)CCN2c2ccc(F)cc21 [Compound 41] | 10 | 3 | ~10 | – | –
– | 40.6 | CN(C)CCN1C2=C(C(=O)Nc3ccccc3F)C(=O)CCN2c2cccc(F)c21 [Compound 45] | 10 | 1 | 3 to 10 | – | minimal effective dose [2, 8]: > 10 mg/kg
21.4 | – | O=C(CN1C2=C(C(=O)Nc3c(F)cccc3F)C(=O)CCN2c2ccc(F)cc21)Nc1ccccc1F [Compound 60] | – | – | – | – | ED50 ([3]; mouse): 10 mg/kg; ED50 ([4]; mouse): > 30 mg/kg
3.33 | – | CCOCN1C2=C(C(=O)Nc3ccc(OCc4ccccc4)cc3F)C(=O)CCN2c2ccc(F)cc21 [Compound 92] | – | – | – | > 3 | –
1.8 | – | CCOCN1C2=C(C(=O)Nc3ccc(OCCOC)cc3F)C(=O)CCN2c2ccc(F)cc21 [Compound 93] | – | – | – | ≤ 0.3 | –
2.5 | – | CCOCN1C2=C(C(=O)Nc3ccc(OC(C)C)cc3F)C(=O)CCN2c2ccc(F)cc21 [Compound 95] | – | – | – | ≤ 3 | –
0.41 | – | CCOCN1C2=C(C(=O)Nc3ccc(OC)cc3F)C(=O)CCN2c2ccc(F)cc21 [Compound 97, 7-Fluoro-1,2-dihydro-5-ethoxymethyl-3-oxo-N-(2-fluoro-4-methoxyphenyl)pyrido[1,2-a]benzimidazole-4-carboxamide] | – | – | – | 0.03 | minimal effective dose [2, 9]: ≤ 0.1 mg/kg; ED50 ([4]; mouse): ≤ 0.3 mg/kg
1.38 | – | CCOCN1C2=C(C(=O)Nc3ccc(O)cc3F)C(=O)CCN2c2ccc(F)cc21 [Compound 99, 7-Fluoro-1,2-dihydro-5·ethoxymethyl·3-oxo-N-(2-fluoro-4-hydroxyphenyl)pyrido[1,2-a]benzimidazale-4-carboxamide] | – | – | – | 1 to 3 | minimal effective dose [2, 9]: ≤ 1 mg/kg; ED50 ([4]; mouse): 0.3 to 3 mg/kg
13.3 | – | CCOCN1C2=C(C(=O)Nc3ccccc3F)C(=O)CCN2c2cc(F)cc(F)c21 [Compound 112] | – | – | – | > 10 | –
44.3 | – | CCOCN1C2=C(C(=O)Nc3ccc(F)cc3F)C(=O)CCN2c2cc(F)cc(F)c21 [Compound 113] | – | – | – | > 10 | –
53.5 | – | CCOCN1C2=C(C(=O)Nc3cc4ccccc4s3)C(=O)CCN2c2ccc(F)cc21 [Compound 115] | – | – | – | – | ED50 ([3]; mouse): > 1 mg/kg; ED50 ([4]; mouse): > 30 mg/kg
106 | – | CCOCCN1C2=C(C(=O)Nc3cc4ccccc4s3)C(=O)CCN2c2ccc(F)cc21 [Compound 117] | – | – | – | – | ED50 ([3]; mouse): ≤ 1 mg/kg; ED50 ([4]; mouse): > 30 mg/kg
3.13 | – | CCOCCN1C2=C(C(=O)Nc3ccc(Cl)s3)C(=O)CCN2c2ccc(F)cc21 [Compound 132] | – | – | – | > 3 | –
0.68 | – | CCOCN1C2=C(C(=O)Nc3ccc(C)s3)C(=O)CCN2c2ccc(F)cc21 [Compound 133] | – | – | – | > 3 | –
